Numbers after ± are expanded uncertainties.
What was measured:
[1] = relative permittivity at zero frequency (dimensionless); xn = mol fraction of the nth substance listed; conditions: 101 kPa, Liquid, Parallel plate capacitor
[2] = xn = mol fraction of the nth substance listed; conditions: 101 kPa, Liquid
[3] = 101 kPa, Liquid
[4] = relative permittivity at zero frequency (dimensionless); conditions: 101 kPa, Liquid, Parallel plate capacitor

CCCOCCO [2-propoxyethanol] + OCCOCCO
Conditions	mass density, 293.15 K [kg/m3]	mass density, 298.15 K [kg/m3]	mass density, 303.15 K [kg/m3]	relative permittivity at zero frequency, 293.15 K	relative permittivity at zero frequency, 298.15 K	relative permittivity at zero frequency, 303.15 K
[1], x1 = 0.0435	–	–	–	31.3 ± 0.04	30.42 ± 0.04	29.5 ± 0.04
[1], x1 = 0.0998	–	–	–	30.58 ± 0.04	29.69 ± 0.04	28.76 ± 0.04
[1], x1 = 0.197	–	–	–	29.18 ± 0.04	28.31 ± 0.04	27.4 ± 0.04
[1], x1 = 0.2962	–	–	–	27.57 ± 0.04	26.74 ± 0.04	25.88 ± 0.04
[1], x1 = 0.3996	–	–	–	25.72 ± 0.04	24.95 ± 0.04	24.14 ± 0.04
[1], x1 = 0.4964	–	–	–	23.82 ± 0.04	23.13 ± 0.04	22.39 ± 0.04
[1], x1 = 0.5955	–	–	–	21.73 ± 0.04	21.13 ± 0.04	20.46 ± 0.04
[1], x1 = 0.6996	–	–	–	19.43 ± 0.04	18.88 ± 0.04	18.29 ± 0.04
[1], x1 = 0.8001	–	–	–	17.06 ± 0.04	16.58 ± 0.04	16.06 ± 0.04
[1], x1 = 0.8999	–	–	–	14.55 ± 0.04	14.13 ± 0.04	13.7 ± 0.04
[1], x1 = 0.9499	–	–	–	13.2 ± 0.04	12.83 ± 0.04	12.46 ± 0.04
[1], x1 = 1	–	–	–	11.76 ± 0.04	11.5 ± 0.04	11.19 ± 0.04
[2], x1 = 0.0436	1106.38 ± 1.7	1102.72 ± 1.7	1098.89 ± 1.8	–	–	–
[2], x1 = 0.1	1093.5 ± 1.6	1089.56 ± 1.7	1085.52 ± 1.8	–	–	–
[2], x1 = 0.2007	1071 ± 1.6	1066.79 ± 1.7	1062.47 ± 1.7	–	–	–
[2], x1 = 0.2997	1049.58 ± 1.6	1045.22 ± 1.6	1040.76 ± 1.7	–	–	–
[2], x1 = 0.3999	1028.62 ± 1.6	1024.11 ± 1.6	1019.56 ± 1.7	–	–	–
[2], x1 = 0.4968	1008.87 ± 1.5	1004.21 ± 1.6	999.53 ± 1.6	–	–	–
[2], x1 = 0.6002	988.3 ± 1.5	983.48 ± 1.6	978.63 ± 1.6	–	–	–
[2], x1 = 0.6985	969.23 ± 1.5	964.21 ± 1.5	959.16 ± 1.6	–	–	–
[2], x1 = 0.7998	950.04 ± 1.4	944.82 ± 1.5	939.65 ± 1.6	–	–	–
[2], x1 = 0.8992	931.65 ± 1.4	926.35 ± 1.5	921.14 ± 1.5	–	–	–
[2], x1 = 0.9499	922.4 ± 1.4	917.14 ± 1.5	911.97 ± 1.5	–	–	–
[2], x1 = 1	913.31 ± 1.4	908.19 ± 1.5	903.11 ± 1.5	–	–	–

OCCOCCO [diethylene glycol] + CCCOCCO
x2 = 0
Conditions	mass density, 293.15 K [kg/m3]	mass density, 298.15 K [kg/m3]	mass density, 303.15 K [kg/m3]	relative permittivity at zero frequency, 293.15 K	relative permittivity at zero frequency, 298.15 K	relative permittivity at zero frequency, 303.15 K
[1]	–	–	–	31.81 ± 0.04	30.95 ± 0.04	30.03 ± 0.04
[2]	1116.38 ± 1.7	1113.03 ± 1.7	1109.47 ± 1.8	–	–	–

CCCOCCO [2-propoxyethanol]
Conditions	mass density, 293.15 K [kg/m3]	mass density, 298.15 K [kg/m3]	mass density, 303.15 K [kg/m3]	relative permittivity at zero frequency, 293.15 K	relative permittivity at zero frequency, 298.15 K	relative permittivity at zero frequency, 303.15 K
[3]	913.31 ± 1.4	908.19 ± 1.5	903.11 ± 1.5	–	–	–
[4]	–	–	–	11.76 ± 0.04	11.5 ± 0.04	11.19 ± 0.04

CCCOCCO [2-propoxyethanol] + OCCOCCOCCO
Conditions	mass density, 293.15 K [kg/m3]	mass density, 298.15 K [kg/m3]	mass density, 303.15 K [kg/m3]	relative permittivity at zero frequency, 293.15 K	relative permittivity at zero frequency, 298.15 K	relative permittivity at zero frequency, 303.15 K
[1], x1 = 0.0501	–	–	–	23.33 ± 0.04	22.71 ± 0.04	22.07 ± 0.04
[1], x1 = 0.1003	–	–	–	22.93 ± 0.04	22.33 ± 0.04	21.68 ± 0.04
[1], x1 = 0.2005	–	–	–	22.09 ± 0.04	21.51 ± 0.04	20.89 ± 0.04
[1], x1 = 0.2999	–	–	–	21.25 ± 0.04	20.64 ± 0.04	20.02 ± 0.04
[1], x1 = 0.4001	–	–	–	20.35 ± 0.04	19.66 ± 0.04	19.06 ± 0.04
[1], x1 = 0.5	–	–	–	19.33 ± 0.04	18.59 ± 0.04	18.02 ± 0.04
[1], x1 = 0.6002	–	–	–	18.11 ± 0.04	17.41 ± 0.04	16.88 ± 0.04
[1], x1 = 0.7002	–	–	–	16.71 ± 0.04	16.13 ± 0.04	15.63 ± 0.04
[1], x1 = 0.8	–	–	–	15.16 ± 0.04	14.73 ± 0.04	14.28 ± 0.04
[1], x1 = 0.9	–	–	–	13.53 ± 0.04	13.18 ± 0.04	12.78 ± 0.04
[1], x1 = 0.95	–	–	–	12.69 ± 0.04	12.36 ± 0.04	11.99 ± 0.04
[1], x1 = 1	–	–	–	11.76 ± 0.04	11.5 ± 0.04	11.19 ± 0.04
[2], x1 = 0.0413	1116.67 ± 1.9	1112.44 ± 1.9	1108.49 ± 2	–	–	–
[2], x1 = 0.1061	1105.37 ± 1.8	1100.97 ± 1.9	1096.78 ± 1.9	–	–	–
[2], x1 = 0.1986	1088.75 ± 1.8	1084.08 ± 1.9	1079.65 ± 1.9	–	–	–
[2], x1 = 0.2999	1069.72 ± 1.8	1064.9 ± 1.8	1060.23 ± 1.9	–	–	–
[2], x1 = 0.3999	1050.01 ± 1.7	1045.15 ± 1.8	1040.34 ± 1.8	–	–	–
[2], x1 = 0.5	1029.46 ± 1.7	1024.57 ± 1.7	1019.67 ± 1.8	–	–	–
[2], x1 = 0.6	1008.1 ± 1.6	1003.16 ± 1.7	998.18 ± 1.7	–	–	–
[2], x1 = 0.7002	985.9 ± 1.6	980.84 ± 1.6	975.77 ± 1.7	–	–	–
[2], x1 = 0.8	962.85 ± 1.5	957.69 ± 1.6	952.55 ± 1.6	–	–	–
[2], x1 = 0.9	938.69 ± 1.5	933.46 ± 1.5	928.29 ± 1.6	–	–	–
[2], x1 = 0.95	926.18 ± 1.4	920.99 ± 1.5	915.81 ± 1.6	–	–	–
[2], x1 = 1	913.31 ± 1.4	908.19 ± 1.5	903.11 ± 1.5	–	–	–
